Experimental data reported in PubChem BioAssay (NCI).
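A five-concentration, 48-hour dose response in 96-well plates underlies each endpoint, interpolated linearly between surrounding concentrations. GI50 marks 50% less growth. TGI: concentration producing complete growth inhibition.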

Experiments:
Assay in all cases: growth of human tumour cells (NCI), 48 h
NCI-H226 lung = test system: NCI-H226 lung
T-47D breast = test system: T-47D breast
HCT-116 colon = test system: HCT-116 colon
SF-295 CNS = test system: SF-295 CNS
SF-539 CNS = test system: SF-539 CNS
RXF 393 renal = test system: RXF 393 renal
U251 CNS = test system: U251 CNS
NCI-H460 lung = test system: NCI-H460 lung
SR leukemia = test system: SR leukemia
OVCAR-3 ovarian = test system: OVCAR-3 ovarian
OVCAR-5 ovarian = test system: OVCAR-5 ovarian
K-562 leukemia = test system: K-562 leukemia
M14 melanoma = test system: M14 melanoma
UACC-62 melanoma = test system: UACC-62 melanoma
UO-31 renal = test system: UO-31 renal
SK-OV-3 ovarian = test system: SK-OV-3 ovarian
MALME-3M melanoma = test system: MALME-3M melanoma
SN12C renal = test system: SN12C renal
HT29 colon = test system: HT29 colon
A549 NSCLC = test system: A549 NSCLC
CCRF-CEM leukemia = test system: CCRF-CEM leukemia
NCI-H23 lung = test system: NCI-H23 lung
786-0 renal = test system: 786-0 renal
KM12 colon = test system: KM12 colon
HOP-62 NSCLC = test system: HOP-62 NSCLC
ACHN renal = test system: ACHN renal
MCF7 breast = test system: MCF7 breast
A498 renal = test system: A498 renal
SW-620 colon = test system: SW-620 colon
MOLT-4 leukemia = test system: MOLT-4 leukemia
OVCAR-8 ovarian = test system: OVCAR-8 ovarian
NCI/ADR-RES ovarian = test system: NCI/ADR-RES ovarian
PC-3 prostate = test system: PC-3 prostate
HS 578T breast = test system: HS 578T breast
DU-145 prostate = test system: DU-145 prostate
CAKI-1 renal = test system: CAKI-1 renal
OVCAR-4 ovarian = test system: OVCAR-4 ovarian
HCC-2998 colon = test system: HCC-2998 colon
EKVX NSCLC = test system: EKVX NSCLC
UACC-257 melanoma = test system: UACC-257 melanoma
NCI-H522 lung = test system: NCI-H522 lung
TK-10 renal = test system: TK-10 renal
HL-60(TB) leukemia = test system: HL-60(TB) leukemia
BT-549 breast = test system: BT-549 breast
LOX IMVI melanoma = test system: LOX IMVI melanoma
SK-MEL-5 melanoma = test system: SK-MEL-5 melanoma
SNB-19 CNS = test system: SNB-19 CNS
MDA-MB-435 = test system: MDA-MB-435
SK-MEL-28 melanoma = test system: SK-MEL-28 melanoma
IGROV1 ovarian = test system: IGROV1 ovarian
COLO 205 colon = test system: COLO 205 colon
HCT-15 colon = test system: HCT-15 colon
SF-268 CNS = test system: SF-268 CNS
HOP-92 NSCLC = test system: HOP-92 NSCLC
MDA-MB-231 breast = test system: MDA-MB-231 breast

COc1cc(/C=C2\CC3C4CC=C5C[C@@H](O)CC[C@]5(C)C4CC[C@]3(C)C2=O)ccc1OCCCn1ccnc1 (stereo not given in full)
GI50 (NCI-H226 lung): 19.6 µM | TGI (NCI-H226 lung): 39.2 µM | GI50 (T-47D breast): 29.3 µM | TGI (T-47D breast): > 100 µM | GI50 (HCT-116 colon): 16.1 µM | TGI (HCT-116 colon): 33.4 µM | GI50 (SF-295 CNS): 13.4 µM | TGI (SF-295 CNS): 27.5 µM | GI50 (SF-539 CNS): 15.7 µM | TGI (SF-539 CNS): 31.1 µM | GI50 (RXF 393 renal): 12.6 µM | TGI (RXF 393 renal): 34.8 µM | GI50 (U251 CNS): 15 µM | TGI (U251 CNS): 32.8 µM | GI50 (NCI-H460 lung): 18.6 µM | TGI (NCI-H460 lung): 44 µM | GI50 (SR leukemia): 24.1 µM | TGI (SR leukemia): 41.9 µM | GI50 (OVCAR-3 ovarian): 19.1 µM | TGI (OVCAR-3 ovarian): 39.4 µM | GI50 (OVCAR-5 ovarian): 20.2 µM | TGI (OVCAR-5 ovarian): 41.9 µM | GI50 (K-562 leukemia): 17.6 µM | TGI (K-562 leukemia): 39.2 µM | GI50 (M14 melanoma): 15.2 µM | TGI (M14 melanoma): 33.3 µM | GI50 (UACC-62 melanoma): 17.3 µM | TGI (UACC-62 melanoma): 35.3 µM | GI50 (UO-31 renal): 19.6 µM | TGI (UO-31 renal): 55.2 µM | GI50 (SK-OV-3 ovarian): 29.1 µM | TGI (SK-OV-3 ovarian): > 100 µM | GI50 (MALME-3M melanoma): 17.3 µM | TGI (MALME-3M melanoma): 36.9 µM | GI50 (SN12C renal): 17 µM | TGI (SN12C renal): 33.7 µM | GI50 (HT29 colon): 13.7 µM | TGI (HT29 colon): > 100 µM | GI50 (A549 NSCLC): 17.1 µM | TGI (A549 NSCLC): 56.4 µM | GI50 (CCRF-CEM leukemia): 18 µM | TGI (CCRF-CEM leukemia): 34.8 µM | GI50 (NCI-H23 lung): 18.1 µM | TGI (NCI-H23 lung): 32.9 µM | GI50 (786-0 renal): 17.3 µM | TGI (786-0 renal): 31.3 µM | GI50 (KM12 colon): 25.2 µM | TGI (KM12 colon): 54.8 µM | GI50 (HOP-62 NSCLC): 19.4 µM | TGI (HOP-62 NSCLC): 34.1 µM | GI50 (ACHN renal): 11.2 µM | TGI (ACHN renal): 24.7 µM | GI50 (MCF7 breast): 18.8 µM | TGI (MCF7 breast): 37.7 µM | GI50 (A498 renal): 25.5 µM | TGI (A498 renal): 44.2 µM | GI50 (SW-620 colon): 24.4 µM | TGI (SW-620 colon): 52.9 µM | GI50 (MOLT-4 leukemia): 20.8 µM | TGI (MOLT-4 leukemia): 41.8 µM | GI50 (OVCAR-8 ovarian): 17.1 µM | TGI (OVCAR-8 ovarian): 47.5 µM | GI50 (NCI/ADR-RES ovarian): 15.4 µM | TGI (NCI/ADR-RES ovarian): 31.7 µM | GI50 (PC-3 prostate): > 100 µM | TGI (PC-3 prostate): > 100 µM | GI50 (HS 578T breast): 26.9 µM | TGI (HS 578T breast): 53.7 µM | GI50 (DU-145 prostate): 15.4 µM | TGI (DU-145 prostate): 29.6 µM | GI50 (CAKI-1 renal): 19.1 µM | TGI (CAKI-1 renal): 39.8 µM | GI50 (OVCAR-4 ovarian): 41.5 µM | TGI (OVCAR-4 ovarian): > 100 µM | GI50 (HCC-2998 colon): 14.8 µM | TGI (HCC-2998 colon): 28.3 µM | GI50 (EKVX NSCLC): 17 µM | TGI (EKVX NSCLC): 47.4 µM | GI50 (UACC-257 melanoma): 15.8 µM | TGI (UACC-257 melanoma): 35.3 µM | GI50 (NCI-H522 lung): 17.1 µM | TGI (NCI-H522 lung): 37.3 µM | GI50 (TK-10 renal): 20.4 µM | TGI (TK-10 renal): 35.9 µM | GI50 (HL-60(TB) leukemia): 19.4 µM | TGI (HL-60(TB) leukemia): 37.3 µM | GI50 (BT-549 breast): 16.5 µM | TGI (BT-549 breast): 44.3 µM | GI50 (LOX IMVI melanoma): 509 nM | TGI (LOX IMVI melanoma): 16.4 µM | GI50 (SK-MEL-5 melanoma): 14.1 µM | TGI (SK-MEL-5 melanoma): 27 µM | GI50 (SNB-19 CNS): 38.8 µM | TGI (SNB-19 CNS): > 100 µM | GI50 (MDA-MB-435): 16.8 µM | TGI (MDA-MB-435): 34 µM | GI50 (SK-MEL-28 melanoma): 28.9 µM | TGI (SK-MEL-28 melanoma): > 100 µM | GI50 (IGROV1 ovarian): 23.7 µM | TGI (IGROV1 ovarian): 52.8 µM | GI50 (COLO 205 colon): 26.4 µM | TGI (COLO 205 colon): > 100 µM | GI50 (HCT-15 colon): 10.2 µM | TGI (HCT-15 colon): 31.3 µM | GI50 (SF-268 CNS): 18.2 µM | TGI (SF-268 CNS): 40.2 µM | GI50 (HOP-92 NSCLC): 14.2 µM | TGI (HOP-92 NSCLC): 32.6 µM | GI50 (MDA-MB-231 breast): 27.1 µM | TGI (MDA-MB-231 breast): 65.6 µM
